Calls of active or inactive are those of the source. The rule behind the calls is not given here.
What was measured:
[1] = molecular target: T1, Serine/threonine-protein kinase Chk1 (Homo sapiens) (UniProt O14757); test: Inhibition of CHK1 phosphorylation at S317 residue in human HCT116 cells at 20 uM after 8 hrs by Western blot analysis; type: cell-based
T1 sequence (whole entry): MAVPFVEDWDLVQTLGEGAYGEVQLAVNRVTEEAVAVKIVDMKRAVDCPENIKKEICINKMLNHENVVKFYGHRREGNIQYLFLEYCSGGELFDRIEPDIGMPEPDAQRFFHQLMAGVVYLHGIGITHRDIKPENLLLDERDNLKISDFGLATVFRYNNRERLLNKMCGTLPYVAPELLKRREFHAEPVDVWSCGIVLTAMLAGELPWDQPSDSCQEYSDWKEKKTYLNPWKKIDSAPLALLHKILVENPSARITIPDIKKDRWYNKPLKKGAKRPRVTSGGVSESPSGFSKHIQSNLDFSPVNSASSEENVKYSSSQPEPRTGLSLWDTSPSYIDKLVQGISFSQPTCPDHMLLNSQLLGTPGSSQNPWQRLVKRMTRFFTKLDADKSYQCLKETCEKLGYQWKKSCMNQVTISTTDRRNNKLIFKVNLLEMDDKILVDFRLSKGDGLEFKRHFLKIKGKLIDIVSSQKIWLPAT

[2] = molecular target: T1, Serine/threonine-protein kinase Chk1 (Homo sapiens); test: Inhibition of CHK1 phosphorylation at S345 residue in human HCT116 cells at 20 uM after 8 hrs by Western blot analysis; type: cell-based
[3] = molecular target: RAC-gamma serine/threonine-protein kinase (Homo sapiens) (UniProt Q9Y243); test: Inhibition of human AKT3 assessed as residual activity at 1 uM using KGSGSGRPRTSSFAEG as substrate by [gamma-33P]-ATP assay relative to control
[4] = molecular target: Calcium/calmodulin-dependent protein kinase type II subunit alpha (Homo sapiens) (UniProt Q9UQM7); test: Inhibition of human CAMK2A assessed as residual activity at 1 uM using KKALRRQETVDAL as substrate by [gamma-33P]-ATP assay relative to control
Sequence of Calcium/calmodulin-dependent protein kinase type II subunit alpha (Homo sapiens) (Q9UQM7 whole entry): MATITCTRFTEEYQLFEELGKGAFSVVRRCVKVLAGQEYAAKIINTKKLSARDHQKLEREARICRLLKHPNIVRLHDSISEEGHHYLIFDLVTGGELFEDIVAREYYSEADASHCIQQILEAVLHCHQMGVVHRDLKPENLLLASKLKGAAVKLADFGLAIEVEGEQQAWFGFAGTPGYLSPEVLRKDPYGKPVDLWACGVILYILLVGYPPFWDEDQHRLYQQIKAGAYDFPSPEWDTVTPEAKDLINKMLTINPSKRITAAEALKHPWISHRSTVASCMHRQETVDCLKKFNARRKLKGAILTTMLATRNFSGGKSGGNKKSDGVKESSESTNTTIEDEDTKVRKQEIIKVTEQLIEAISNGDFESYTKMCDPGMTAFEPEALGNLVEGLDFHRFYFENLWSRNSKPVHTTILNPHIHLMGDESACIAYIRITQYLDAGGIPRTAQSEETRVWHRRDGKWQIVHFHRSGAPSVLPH

[5] = molecular target: Cyclin-dependent kinase 2/cyclin E1 (Homo sapiens) (UniProt P24864+P24941); test: Inhibition of human CDK2/cyclin-E assessed as residual activity at 1 uM using histone H1 as substrate by [gamma-33P]-ATP assay relative to control; type: protein-complex assay
[6] = molecular target: MAP kinase-activated protein kinase 5 (Homo sapiens) (UniProt Q8IW41); test: Inhibition of human MAPKAPK5 assessed as residual activity at 1 uM using KKLNRTLSVA as substrate by [gamma-33P]-ATP assay relative to control
Sequence of MAP kinase-activated protein kinase 5 (Homo sapiens) (Q8IW41 whole entry): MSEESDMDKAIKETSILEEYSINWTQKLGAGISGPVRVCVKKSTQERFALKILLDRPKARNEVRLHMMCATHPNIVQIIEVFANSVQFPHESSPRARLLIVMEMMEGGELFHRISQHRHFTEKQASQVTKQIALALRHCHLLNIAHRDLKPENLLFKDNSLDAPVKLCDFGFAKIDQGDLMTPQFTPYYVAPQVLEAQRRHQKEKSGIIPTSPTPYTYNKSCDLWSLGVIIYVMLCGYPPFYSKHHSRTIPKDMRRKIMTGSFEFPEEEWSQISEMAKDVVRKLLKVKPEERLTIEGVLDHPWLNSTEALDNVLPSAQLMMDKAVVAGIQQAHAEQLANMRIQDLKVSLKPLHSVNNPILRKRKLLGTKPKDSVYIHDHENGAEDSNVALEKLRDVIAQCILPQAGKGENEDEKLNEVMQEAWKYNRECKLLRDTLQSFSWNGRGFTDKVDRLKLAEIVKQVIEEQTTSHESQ

[7] = molecular target: Dual specificity mitogen-activated protein kinase kinase 7 (Homo sapiens) (UniProt O14733); test: Inhibition of human MKK7 assessed as residual activity at 1 uM using JNK as substrate by [gamma-33P]-ATP assay relative to control
Sequence of Dual specificity mitogen-activated protein kinase kinase 7 (Homo sapiens) (O14733 whole entry): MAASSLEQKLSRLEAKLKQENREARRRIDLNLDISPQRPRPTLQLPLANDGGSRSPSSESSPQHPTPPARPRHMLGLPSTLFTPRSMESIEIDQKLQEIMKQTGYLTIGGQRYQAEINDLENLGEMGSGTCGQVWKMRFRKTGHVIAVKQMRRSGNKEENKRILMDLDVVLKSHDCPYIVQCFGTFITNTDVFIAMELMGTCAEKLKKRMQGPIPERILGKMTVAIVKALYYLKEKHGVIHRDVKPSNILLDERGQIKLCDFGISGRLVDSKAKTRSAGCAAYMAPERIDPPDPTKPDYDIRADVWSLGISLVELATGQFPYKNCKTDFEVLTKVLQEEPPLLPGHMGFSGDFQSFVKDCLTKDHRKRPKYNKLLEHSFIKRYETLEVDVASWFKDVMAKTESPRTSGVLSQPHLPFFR

[8] = molecular target: Serine/threonine-protein kinase 24 (Homo sapiens) (UniProt Q9Y6E0); test: Inhibition of human MST3 assessed as residual activity at 1 uM using MBP as substrate by [gamma-33P]-ATP assay relative to control
Sequence of Serine/threonine-protein kinase 24 (Homo sapiens) (Q9Y6E0 whole entry, looked up): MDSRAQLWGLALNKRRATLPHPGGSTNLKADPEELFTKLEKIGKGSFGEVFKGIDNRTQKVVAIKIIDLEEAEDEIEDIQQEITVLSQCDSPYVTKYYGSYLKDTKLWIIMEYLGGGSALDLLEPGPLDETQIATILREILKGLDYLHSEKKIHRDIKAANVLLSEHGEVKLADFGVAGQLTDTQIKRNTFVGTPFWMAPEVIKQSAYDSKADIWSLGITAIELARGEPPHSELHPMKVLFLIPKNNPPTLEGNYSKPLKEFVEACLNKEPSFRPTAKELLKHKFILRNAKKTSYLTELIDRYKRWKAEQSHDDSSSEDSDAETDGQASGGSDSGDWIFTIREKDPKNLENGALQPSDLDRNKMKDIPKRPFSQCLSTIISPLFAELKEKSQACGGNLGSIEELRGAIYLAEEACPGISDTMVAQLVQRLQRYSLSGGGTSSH

[9] = molecular target: Muscle, skeletal receptor tyrosine-protein kinase (Homo sapiens) (UniProt O15146); test: Inhibition of human MUSK assessed as residual activity at 1 uM using MBP as substrate by [gamma-33P]-ATP assay relative to control
Sequence of Muscle, skeletal receptor tyrosine-protein kinase (Homo sapiens) (O15146 whole entry): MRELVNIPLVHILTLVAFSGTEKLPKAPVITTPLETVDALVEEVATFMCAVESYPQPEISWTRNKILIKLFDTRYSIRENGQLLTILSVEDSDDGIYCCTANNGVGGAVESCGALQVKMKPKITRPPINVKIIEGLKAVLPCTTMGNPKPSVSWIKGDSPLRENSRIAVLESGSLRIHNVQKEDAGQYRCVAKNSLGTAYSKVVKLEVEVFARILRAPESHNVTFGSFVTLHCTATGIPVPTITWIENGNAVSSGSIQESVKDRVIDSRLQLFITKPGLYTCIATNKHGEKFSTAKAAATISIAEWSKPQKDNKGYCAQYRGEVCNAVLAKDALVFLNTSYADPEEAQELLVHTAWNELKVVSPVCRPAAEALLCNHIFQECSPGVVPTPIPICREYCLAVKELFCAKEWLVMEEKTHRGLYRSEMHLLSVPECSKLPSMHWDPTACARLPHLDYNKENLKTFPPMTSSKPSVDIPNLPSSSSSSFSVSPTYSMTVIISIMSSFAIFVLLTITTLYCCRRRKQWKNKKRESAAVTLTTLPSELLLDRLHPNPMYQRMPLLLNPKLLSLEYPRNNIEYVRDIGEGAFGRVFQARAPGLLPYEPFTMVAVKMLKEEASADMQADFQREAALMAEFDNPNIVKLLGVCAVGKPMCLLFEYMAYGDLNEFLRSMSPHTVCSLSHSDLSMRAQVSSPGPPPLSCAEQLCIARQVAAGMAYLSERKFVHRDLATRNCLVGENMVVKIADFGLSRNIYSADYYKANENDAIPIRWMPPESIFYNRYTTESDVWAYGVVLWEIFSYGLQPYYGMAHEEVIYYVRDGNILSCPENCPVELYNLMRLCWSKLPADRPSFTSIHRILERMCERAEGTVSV

[10] = molecular target: Serine/threonine-protein kinase pim-3 (Homo sapiens) (UniProt Q86V86); test: Inhibition of human PIM3 assessed as residual activity at 1 uM using RSRHSSYPAGT as substrate by [gamma-33P]-ATP assay relative to control
[11] = molecular target: Protein kinase C gamma type (Homo sapiens) (UniProt P05129); test: Inhibition of human PKCgamma assessed as residual activity at 1 uM using ERMRPRKRQGSVRRRV as substrate by [gamma-33P]-ATP assay relative to control
[12] = molecular target: Dual serine/threonine and tyrosine protein kinase (Homo sapiens) (UniProt Q6XUX3); test: Inhibition of human RIPK5 assessed as residual activity at 1 uM using MBP as substrate by [gamma-33P]-ATP assay relative to control
[13] = molecular target: Macrophage-stimulating protein receptor (Homo sapiens) (UniProt Q04912); test: Inhibition of human RON assessed as residual activity at 1 uM using KKSRGDYMTMQIG as substrate by [gamma-33P]-ATP assay relative to control
[14] = molecular target: SNF-related serine/threonine-protein kinase (Homo sapiens) (UniProt Q9NRH2); test: Inhibition of human SNRK assessed as residual activity at 1 uM using MBP as substrate by [gamma-33P]-ATP assay relative to control
[15] = molecular target: NUAK family SNF1-like kinase 1 (Homo sapiens) (UniProt O60285); test: Inhibition of human ARK5 assessed as residual activity at 1 uM using KKKVSRSGLYRSPSMPENLNRPR as substrate by [gamma-33P]-ATP assay relative to control
Sequence of NUAK family SNF1-like kinase 1 (Homo sapiens) (O60285 whole entry): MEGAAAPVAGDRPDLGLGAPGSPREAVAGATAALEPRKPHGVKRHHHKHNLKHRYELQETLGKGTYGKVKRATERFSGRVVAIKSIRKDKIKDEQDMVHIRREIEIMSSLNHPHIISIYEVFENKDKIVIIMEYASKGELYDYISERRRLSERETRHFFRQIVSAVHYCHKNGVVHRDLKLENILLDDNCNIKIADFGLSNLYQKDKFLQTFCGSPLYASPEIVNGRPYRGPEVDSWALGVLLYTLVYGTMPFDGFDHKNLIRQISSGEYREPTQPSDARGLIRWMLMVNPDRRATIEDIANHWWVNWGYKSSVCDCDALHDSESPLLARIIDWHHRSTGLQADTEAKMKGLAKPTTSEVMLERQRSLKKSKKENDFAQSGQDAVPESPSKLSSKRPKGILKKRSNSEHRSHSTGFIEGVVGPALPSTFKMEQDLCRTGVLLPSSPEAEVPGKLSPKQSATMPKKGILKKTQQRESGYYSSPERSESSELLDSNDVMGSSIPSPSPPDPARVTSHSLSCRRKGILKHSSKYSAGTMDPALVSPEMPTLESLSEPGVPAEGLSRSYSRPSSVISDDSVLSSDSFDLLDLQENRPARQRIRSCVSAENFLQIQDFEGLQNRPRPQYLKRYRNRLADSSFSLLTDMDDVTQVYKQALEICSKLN

[16] = molecular target: Tyrosine-protein kinase Blk (Homo sapiens) (UniProt P51451); test: Inhibition of human BLK assessed as residual activity at 1 uM using poly[Glu:Tyr](4:1) as substrate by [gamma-33P]-ATP assay relative to control
[17] = molecular target: Cyclin-dependent kinase 1/cyclin B1 (Homo sapiens) (UniProt P06493+P14635); test: Inhibition of human CDK1/cyclinB assessed as residual activity at 1 uM using Histone H1 as substrate by [gamma-33P]-ATP assay relative to control; type: protein-complex assay
Sequence of Cyclin-dependent kinase 1/cyclin B1 (Homo sapiens) (P06493 whole entry, looked up): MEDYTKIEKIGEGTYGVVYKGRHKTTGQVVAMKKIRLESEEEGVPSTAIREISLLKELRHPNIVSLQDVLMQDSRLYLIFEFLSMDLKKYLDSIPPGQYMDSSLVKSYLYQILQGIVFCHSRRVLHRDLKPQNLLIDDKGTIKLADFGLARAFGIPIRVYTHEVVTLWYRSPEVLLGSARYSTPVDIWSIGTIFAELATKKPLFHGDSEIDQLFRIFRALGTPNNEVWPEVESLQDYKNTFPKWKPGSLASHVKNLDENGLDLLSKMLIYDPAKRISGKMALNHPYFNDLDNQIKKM
Sequence of Cyclin-dependent kinase 1/cyclin B1 (Homo sapiens) (P14635 whole entry, looked up): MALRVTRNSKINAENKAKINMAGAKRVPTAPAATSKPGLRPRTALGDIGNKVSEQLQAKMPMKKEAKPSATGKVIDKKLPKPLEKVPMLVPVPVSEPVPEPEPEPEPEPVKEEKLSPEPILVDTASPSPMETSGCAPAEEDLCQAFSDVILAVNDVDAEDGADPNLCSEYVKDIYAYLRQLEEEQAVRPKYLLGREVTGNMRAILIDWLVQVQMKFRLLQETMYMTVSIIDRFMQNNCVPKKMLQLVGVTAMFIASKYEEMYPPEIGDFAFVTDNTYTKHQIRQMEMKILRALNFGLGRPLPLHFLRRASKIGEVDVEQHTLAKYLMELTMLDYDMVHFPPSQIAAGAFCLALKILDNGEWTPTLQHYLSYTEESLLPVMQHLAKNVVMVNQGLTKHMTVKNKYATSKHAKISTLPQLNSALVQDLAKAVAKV

[18] = molecular target: CDK2/Cyclin A2 (Homo sapiens) (UniProt P24941+P20248); test: Inhibition of human CDK2/cyclin-A assessed as residual activity at 1 uM using histone H1 as substrate by [gamma-33P]-ATP assay relative to control; type: protein-complex assay
[19] = molecular target: Serine/threonine-protein kinase DCLK1 (Homo sapiens) (UniProt O15075); test: Inhibition of human DCAMKL1 assessed as residual activity at 1 uM using KKLNRTLSFAEPG as substrate by [gamma-33P]-ATP assay relative to control
[20] = molecular target: Focal adhesion kinase 1 (Homo sapiens) (UniProt Q05397); test: Inhibition of human FAK assessed as residual activity at 1 uM using poly[Glu:Tyr] (4:1) as substrate by [gamma-33P]-ATP assay relative to control
[21] = molecular target: Serine/threonine-protein kinase Nek8 (Homo sapiens) (UniProt Q86SG6); test: Inhibition of human NEK8 assessed as residual activity at 1 uM using casein as substrate by [gamma-33P]-ATP assay relative to control
[22] = molecular target: Receptor-interacting serine/threonine-protein kinase 2 (Homo sapiens) (UniProt O43353); test: Inhibition of human RIPK2 assessed as residual activity at 1 uM using MBP as substrate by [gamma-33P]-ATP assay relative to control
Sequence of Receptor-interacting serine/threonine-protein kinase 2 (Homo sapiens) (O43353 whole entry): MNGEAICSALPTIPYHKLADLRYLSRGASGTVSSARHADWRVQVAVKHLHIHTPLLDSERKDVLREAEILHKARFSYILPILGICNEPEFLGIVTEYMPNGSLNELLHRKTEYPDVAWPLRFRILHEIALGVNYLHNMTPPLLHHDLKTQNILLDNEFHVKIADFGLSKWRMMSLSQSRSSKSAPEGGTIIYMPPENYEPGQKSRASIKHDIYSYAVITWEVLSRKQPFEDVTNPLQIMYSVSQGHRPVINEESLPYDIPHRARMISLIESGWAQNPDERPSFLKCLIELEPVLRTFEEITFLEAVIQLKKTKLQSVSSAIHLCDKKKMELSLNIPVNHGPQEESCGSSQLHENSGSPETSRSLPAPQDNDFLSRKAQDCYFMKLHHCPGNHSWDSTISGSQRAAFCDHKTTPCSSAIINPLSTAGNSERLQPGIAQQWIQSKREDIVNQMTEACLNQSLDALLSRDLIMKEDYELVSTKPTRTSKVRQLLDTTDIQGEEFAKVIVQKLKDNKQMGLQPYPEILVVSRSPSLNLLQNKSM

[23] = molecular target: Serine/threonine-protein kinase 16 (Homo sapiens) (UniProt O75716); test: Inhibition of human STK16 assessed as residual activity at 1 uM using MBP as substrate by [gamma-33P]-ATP assay relative to control
[24] = molecular target: STE20/SPS1-related proline-alanine-rich protein kinase (Homo sapiens) (UniProt Q9UEW8); test: Inhibition of human STK39 assessed as residual activity at 1 uM using MBP as substrate by [gamma-33P]-ATP assay relative to control

C(=C\c1ccccc1)/C[N+]12CN3CN(CN(C3)C1)C2
inhibition [1]: inactive | inhibition [2]: inactive | Activity [3]: 95.9 to 96% | Activity [4]: 93.1 to 94.1% | Activity [5]: 96.3 to 96.9% | Activity [6]: 93.2 to 94.5% | Activity [7]: 96.4 to 98.9% | Activity [8]: 107 to 112% | Activity [9]: 89.6% | Activity [10]: 104 to 107% | Activity [11]: 94.5 to 96.3% | Activity [12]: 91 to 92.4% | Activity [13]: 93.3 to 94.8% | Activity [14]: 79.8 to 81%

ClC/C=C/C[N+]12CN3CN(CN(C3)C1)C2
Activity [15]: 87.9 to 94.8% | Activity [16]: 93.1 to 94.8% | Activity [17]: 94.3 to 96.5% | Activity [18]: 97.3 to 97.8% | Activity [19]: 92.8 to 93.2% | Activity [20]: 92.5 to 96% | Activity [21]: 88.6 to 89% | Activity [22]: 95.4 to 96.7% | Activity [23]: 93.1 to 95.2% | Activity [24]: 94.4 to 94.9%

Reference: ChEMBL document CHEMBL4325871 (Eur J Med Chem, 2019)
